Laboratory results taken from patent US20050197350A1, “Novel quinoline, tetrahydroquinazoline, and pyrimidine derivatives and methods of treatment related to the use thereof” (TAISHO PHARMACEUTICAL CO., LTD., priority 2003, published 2005).

Tested on: MCH receptors
Experiment: MCH receptor activity class (method not given)
Conditions: activity class 1-3: percent of control at 10^-7 M or IC50

| Compound | class |
| --- | --- |
| CN(C)c1nc(N[C@H]2CC[C@@H](NC(=O)Nc3c(Cl)cc(Cl)cc3Cl)CC2)nc2c1CCCC2 [compound 1669] | 2 (Class 2: The value of percent of control at 10^−7 M was from 40% to 60% or the value of IC′50 was from 50 nM to 200 nM.) |
| CN(C)c1nc(N[C@H]2CC[C@@H](NC(=O)Nc3c(F)cc(Br)cc3Br)CC2)nc2c1CCCC2 [compound 1671, N-(2,4-dibromo-6-fluorophenyl)-N′-(cis-4-{[4-(dimethylamino)-5,6,7,8-tetrahydroquinazolin-2-yl]amino}cyclohexyl)urea] | 2 (Class 2: The value of percent of control at 10^−7 M was from 40% to 60% or the value of IC′50 was from 50 nM to 200 nM.) |
| CCc1cccc(CC)c1NC(=O)N[C@H]1CC[C@@H](Nc2nc3c(c(N(C)C)n2)CCCC3)CC1 [compound 1672] | 1 (Class 1: The value of percent of control at 10^−7 M was less than 40% or the value of IC50 was less than 50 nM.) |
| CN(C)c1nc(N[C@H]2CC[C@@H](NC(=O)Nc3c(Cl)cccc3C(F)(F)F)CC2)nc2c1CCCC2 [compound 1673] | 3 (Class 3 The value of percent of control at 10^−7 M was more than 60% or the value of IC50 was more than 200 nM.) |
| Cc1cccc(Cl)c1NC(=O)N[C@H]1CC[C@@H](Nc2nc3c(c(N(C)C)n2)CCCC3)CC1 [compound 1674] | 3 (Class 3 The value of percent of control at 10^−7 M was more than 60% or the value of IC50 was more than 200 nM.) |
| CN(C)c1nc(N[C@H]2CC[C@@H](NC(=O)NCc3ccccc3Cl)CC2)nc2c1CCCC2 [compound 1675, N-(2-chlorobenzyl)-N′-(cis-4-{[4-(dimethylamino)-5,6,7,8-tetrahydroquinazolin-2-yl]amino}cyclohexyl)urea] | 2 (Class 2: The value of percent of control at 10^−7 M was from 40% to 60% or the value of IC′50 was from 50 nM to 200 nM.) |
| CCc1cccc(C(C)C)c1NC(=O)N[C@H]1CC[C@@H](Nc2nc3c(c(N(C)C)n2)CCCC3)CC1 [compound 1676] | 2 (Class 2: The value of percent of control at 10^−7 M was from 40% to 60% or the value of IC′50 was from 50 nM to 200 nM.) |
| CCc1ccccc1NC(=O)N[C@H]1CC[C@@H](Nc2nc3c(c(N(C)C)n2)CCCC3)CC1 [compound 1677] | 2 (Class 2: The value of percent of control at 10^−7 M was from 40% to 60% or the value of IC′50 was from 50 nM to 200 nM.) |
| CN(C)c1nc(N[C@H]2CC[C@@H](NC(=O)Nc3ccccc3I)CC2)nc2c1CCCC2 [compound 1678] | 3 (Class 3 The value of percent of control at 10^−7 M was more than 60% or the value of IC50 was more than 200 nM.) |
| Cc1cccc(C(C)C)c1NC(=O)N[C@H]1CC[C@@H](Nc2nc3c(c(N(C)C)n2)CCCC3)CC1 [compound 1679] | 2 (Class 2: The value of percent of control at 10^−7 M was from 40% to 60% or the value of IC′50 was from 50 nM to 200 nM.) |
| CC(C)c1ccccc1NC(=O)N[C@H]1CC[C@@H](Nc2nc3c(c(N(C)C)n2)CCCC3)CC1 [compound 1680] | 3 (Class 3 The value of percent of control at 10^−7 M was more than 60% or the value of IC50 was more than 200 nM.) |
| Cc1c(NC(=O)N[C@H]2CC[C@@H](Nc3nc4c(c(N(C)C)n3)CCCC4)CC2)cccc1[N+](=O)[O-] [compound 1681] | 3 (Class 3 The value of percent of control at 10^−7 M was more than 60% or the value of IC50 was more than 200 nM.) |
| CCCc1ccccc1NC(=O)N[C@H]1CC[C@@H](Nc2nc3c(c(N(C)C)n2)CCCC3)CC1 [compound 1682] | 3 (Class 3 The value of percent of control at 10^−7 M was more than 60% or the value of IC50 was more than 200 nM.) |
| Cc1cccc(C(C)(C)C)c1NC(=O)N[C@H]1CC[C@@H](Nc2nc3c(c(N(C)C)n2)CCCC3)CC1 [compound 1683, N-(2-tert-butyl-6-methylphenyl)-N′-(cis-4-{[4-(dimethylamino)-5,6,7,8-tetrahydroquinazolin-2-yl]amino}cyclohexyl)urea] | 2 (Class 2: The value of percent of control at 10^−7 M was from 40% to 60% or the value of IC′50 was from 50 nM to 200 nM.) |
| CN(C)c1nc(N[C@H]2CC[C@@H](NC(=O)Nc3ccccc3C(C)(C)C)CC2)nc2c1CCCC2 [compound 1684] | 3 (Class 3 The value of percent of control at 10^−7 M was more than 60% or the value of IC50 was more than 200 nM.) |
| Cc1c(Cl)cccc1NC(=O)N[C@H]1CC[C@@H](Nc2nc3c(c(N(C)C)n2)CCCC3)CC1 [compound 1685] | 3 (Class 3 The value of percent of control at 10^−7 M was more than 60% or the value of IC50 was more than 200 nM.) |
| CN(C)c1nc(N[C@H]2CC[C@@H](NC(=O)Nc3c(F)cc(Br)cc3F)CC2)nc2c1CCCC2 [compound 1686] | 3 (Class 3 The value of percent of control at 10^−7 M was more than 60% or the value of IC50 was more than 200 nM.) |
| CN(C)c1nc(N[C@H]2CC[C@@H](NC(=O)Nc3ccc(Cl)cc3C(F)(F)F)CC2)nc2c1CCCC2 [compound 1687] | 3 (Class 3 The value of percent of control at 10^−7 M was more than 60% or the value of IC50 was more than 200 nM.) |

| Compound | class |
| --- | --- |
| CN(C)c1nc(N[C@H]2CC[C@@H](NC(=O)Nc3ccc(C#N)cc3)CC2)nc2c1CCCC2 [compound 1688] | 3 (Class 3 The value of percent of control at 10^−7 M was more than 60% or the value of IC50 was more than 200 nM.) |
| CN(C)c1nc(N[C@H]2CC[C@@H](NC(=O)NC(c3ccccc3)c3ccccc3)CC2)nc2c1CCCC2 [compound 1689] | 1 (Class 1: The value of percent of control at 10^−7 M was less than 40% or the value of IC50 was less than 50 nM.) |
| Cc1cc(Br)cc(C)c1NC(=O)N[C@H]1CC[C@@H](Nc2nc3c(c(N(C)C)n2)CCCC3)CC1 [compound 1690, N-(4-bromo-2,6-dimethylphenyl)-N′-(cis-4-{[4-(dimethylamino)-5,6,7,8-tetrahydroquinazolin-2-yl]amino}cyclohexyl)urea] | 1 (Class 1: The value of percent of control at 10^−7 M was less than 40% or the value of IC50 was less than 50 nM.) |
| Cc1noc(-c2ccccc2)c1NC(=O)N[C@H]1CC[C@@H](Nc2nc3c(c(N(C)C)n2)CCCC3)CC1 [compound 1691] | 1 (Class 1: The value of percent of control at 10^−7 M was less than 40% or the value of IC50 was less than 50 nM.) |
| Cc1cc(NC(=O)N[C@H]2CC[C@@H](Nc3nc4c(c(N(C)C)n3)CCCC4)CC2)c(C(F)(F)F)o1 [compound 1692] | 3 (Class 3 The value of percent of control at 10^−7 M was more than 60% or the value of IC50 was more than 200 nM.) |
| CN(C)c1nc(N[C@H]2CC[C@@H](NC(=O)Nc3ccccc3Br)CC2)nc2c1CCCC2 [compound 1693] | 3 (Class 3 The value of percent of control at 10^−7 M was more than 60% or the value of IC50 was more than 200 nM.) |
| CN(C)c1nc(N[C@H]2CC[C@@H](NC(=O)Nc3ccccc3-c3ccccc3)CC2)nc2c1CCCC2 [compound 1694] | 3 (Class 3 The value of percent of control at 10^−7 M was more than 60% or the value of IC50 was more than 200 nM.) |
| CCCCNC(=O)N[C@H]1CC[C@@H](Nc2nc3c(c(N(C)C)n2)CCCC3)CC1 [compound 1695] | 3 (Class 3 The value of percent of control at 10^−7 M was more than 60% or the value of IC50 was more than 200 nM.) |
| Cc1cccc(NC(=O)N[C@H]2CC[C@@H](Nc3nc4c(c(N(C)C)n3)CCCC4)CC2)c1C [compound 1696] | 3 (Class 3 The value of percent of control at 10^−7 M was more than 60% or the value of IC50 was more than 200 nM.) |
| CCOC(=O)c1cccc(NC(=O)N[C@H]2CC[C@@H](Nc3nc4c(c(N(C)C)n3)CCCC4)CC2)c1 [compound 1697] | 3 (Class 3 The value of percent of control at 10^−7 M was more than 60% or the value of IC50 was more than 200 nM.) |
| C=C(C)c1cccc(C(C)(C)NC(=O)N[C@H]2CC[C@@H](Nc3nc4c(c(N(C)C)n3)CCCC4)CC2)c1 [compound 1698] | 3 (Class 3 The value of percent of control at 10^−7 M was more than 60% or the value of IC50 was more than 200 nM.) |
| CN(C)c1nc(N[C@H]2CC[C@@H](NC(=O)Nc3cccc4ccccc34)CC2)nc2c1CCCC2 [compound 1700] | 2 (Class 2: The value of percent of control at 10^−7 M was from 40% to 60% or the value of IC′50 was from 50 nM to 200 nM.) |
| CN(C)c1nc(N[C@H]2CC[C@@H](NC(=O)NC3C[C@H]3c3ccccc3)CC2)nc2c1CCCC2 (some centres unmarked) [compound 1701] | 3 (Class 3 The value of percent of control at 10^−7 M was more than 60% or the value of IC50 was more than 200 nM.) |
| CN(C)c1nc(N[C@H]2CC[C@@H](NC(=O)Nc3ccc(Oc4ccccc4)cc3)CC2)nc2c1CCCC2 [compound 1702] | 3 (Class 3 The value of percent of control at 10^−7 M was more than 60% or the value of IC50 was more than 200 nM.) |
| CCCCCNC(=O)N[C@H]1CC[C@@H](Nc2nc3c(c(N(C)C)n2)CCCC3)CC1 [compound 1703] | 3 (Class 3 The value of percent of control at 10^−7 M was more than 60% or the value of IC50 was more than 200 nM.) |
| CC(NC(=O)NC1CCC(Nc2nc3c(c(N(C)C)n2)CCCC3)CC1)c1ccccc1 (centres unmarked) [compound 1707] | 3 (Class 3 The value of percent of control at 10^−7 M was more than 60% or the value of IC50 was more than 200 nM.) |
| CN(C)c1nc(N[C@H]2CC[C@@H](NC(=O)Nc3c(Cl)c(Cl)cc(Cl)c3Cl)CC2)nc2c1CCCC2 [compound 1708] | 3 (Class 3 The value of percent of control at 10^−7 M was more than 60% or the value of IC50 was more than 200 nM.) |
| CN(C)c1nc(N[C@H]2CC[C@@H](NC(=O)Nc3ccc(Br)cc3Br)CC2)nc2c1CCCC2 [compound 1709] | 2 (Class 2: The value of percent of control at 10^−7 M was from 40% to 60% or the value of IC′50 was from 50 nM to 200 nM.) |

Same assay, conditions: class by percent of control at 10^-7 M or IC50

| Compound | class |
| --- | --- |
| CN(C)c1nc(N[C@H]2CC[C@@H](NC(=O)NCc3ccc(Cl)cc3Cl)CC2)nc2c1CCCC2 [compound 1710] | 2 (Class 2: The value of percent of control at 10^−7 M was from 40% to 60% or the value of IC′50 was from 50 nM to 200 nM.) |
| COc1ccc(NC(=O)N[C@H]2CC[C@@H](Nc3nc4c(c(N(C)C)n3)CCCC4)CC2)c(OC)c1 [compound 1711, N-(2,4-dimethoxyphenyl)-N′-(cis-4-{[4-(dimethylamino)-5,6,7,8-tetrahydroquinazolin-2-yl]amino}cyclohexyl)urea] | 2 (Class 2: The value of percent of control at 10^−7 M was from 40% to 60% or the value of IC′50 was from 50 nM to 200 nM.) |
